Where two headings read alike, the source gives them in different places.
Assays:
Assay type in all cases: biochemical
human caspase-3 = biological target: T1, human caspase-3 (Homo sapiens, UniProt P42574); experiment: Fluorescent enzyme assay, Casp3 (AFC substrate AcDEVD-AFC)
T1 construct: made in house; host or cells: E. coli Rosetta 2 pLysS DE3
T1 sequence (P42574 29-277): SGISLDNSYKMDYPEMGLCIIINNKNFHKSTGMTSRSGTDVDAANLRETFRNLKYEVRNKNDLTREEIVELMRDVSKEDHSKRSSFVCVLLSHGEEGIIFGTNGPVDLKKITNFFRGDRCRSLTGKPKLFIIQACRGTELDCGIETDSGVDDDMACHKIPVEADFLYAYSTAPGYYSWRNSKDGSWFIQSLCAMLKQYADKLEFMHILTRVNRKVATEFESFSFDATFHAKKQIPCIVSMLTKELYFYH
From the text: (§1) Human recombinant Casp1, 6, 7, and 9 were purchased from BioVision (Milpitas/CA, USA). AFC fluorogenic substrates and control peptides (AcYVAD-CHO, AcVDVAD-CHO, AcDEVD-CHO, AcVEID-CHO, and AcLEHD-CHO) were purchased from Bachem (Torrance/CA, USA). The pET23b vector encoding human caspase-3 was a gift of Dr. Michelle Arkin at University of California, San Francisco. Expression and purification of Casp3 was guided by previously described protocols (Denault J-B, Salvesen G S., Current Protocols in Protein Science, 2002, 30(1), 21.13. 1-21.13. 15). Briefly, the plasmid was transformed into E. coli Rosetta 2 pLyss DE3 cells that were cultured at 1 L scale in shake flasks. Five hours post induction with IPTG, cells were harvested through centrifugation (4000 g for 10 minutes at 4° C.), lysed by sonication, and centrifuged again for 30 minutes at 20000 g. Supernatant was resuspended in buffer (100 mM Tris pH 8.0, 500 mM NaCl). Purification was achieved by nickel-affinity chromatography followed by ion-exchange chromatography. Protein was diluted to 0.5 mg/mL and stored at −80° C. in 100 mM Tris, pH 8.0 supplemented with 10% glycerol. The typical yield for the expression, isolation, and purification was approximately 3 mg/L. The DNA encoding human caspase-2 (hCASP2, amino acids 170-452, free of the N-terminal caspase activation and recruitment domain) open reading frame (ORF) was amplified via polymerase chain reaction (PCR) from full-length hCASP2 cDNA (Origene, Rockville, MD; Cat #SC321316) using following primers: forward, 5′-[…]-3′; reverse, 5′-[…]-3′. The PCR fragment was then cloned into the pET23b vector (Millipore Sigma, Burlington, MA), and DNA sequence was verified by classic Sanger sequencing analyses. Site-directed mutageneses were carried out using a QuikChange II XL site-directed mutagenesis kit (Agilent Technologies, Santa Clara, CA; Cat #200522) according to the manufacturer's instruction. Expression of recombinant hCASP2 was induced using 150 μM isopropyl-β-D-thiogalactopyranoside (IPTG) (Promega, Madison, WI) in the BL21(DE3) E. coli strain (Millipore Sigma) at 16° C. for 14 hours while shaking at 250 rpm. Cells were then harvested via centrifugation at 6,000 g, 4° C. for 15 minutes, followed by lysis via sonication. Proteins were initially purified using HisPur Ni-NTA resin (Thermo Fisher Scientific, Waltham, MA) followed by metal chelating chromatography (5 mL HiTrap Chelating HP columns (GE Healthcare Life Sciences, Piscataway, NJ)). Further purification was carried out using anion exchange chromatography (5 mL HiTrap Q HP columns (GE Healthcare Life Sciences)) for hCASP2. Proteins were stored in 1× phosphate-buffered saline (pH 7.4) at 10 mg/mL (concentration determined using a BCA assay (Thermo Fisher Scientific)), −80° C. until further use.
(§2) KM values were determined experimentally to be the following: Casp1: 5.9 μM; Casp2: 37.1 μM; Casp3: 7.6 μM; Casp6: 14.5 μM; Casp7: 13.8 μM; Casp9: 149.1 μM. Enzymes were diluted in buffer: 100 mM MES (pH 6.5) for Casp2 and or 100 mM HEPES (pH 7.0) for all other caspases, plus 150 mM NaCl, 0.1% CHAPS, 1.5% sucrose, 10 mM DTT. Enzyme concentrations were 0.05 U/well for Casp1, 6, and 7; 0.5 U/well for Casp9, 20 nM/well for Casp2, and 2 nM/well for Casp3. Enzyme in buffer (19 μL) was added per well in a black 384-well Corning 4514 assay plate. Test compounds were serially diluted in dimethyl sulfoxide (DMSO) and plated in duplicate into a Corning 3656 transfer plate. Test compound was added to assay plates in 0.5 μL aliquots per well and mixed 10 times using a BiomekFX (Beckman Coulter). Compound and enzyme mixture was incubated at 37° C. for 5 minutes for aldehyde warheads and 45 minutes for cyano warheads. […]

human caspase-2 = biological target: T2, human caspase-2 (Homo sapiens, UniProt P42575); experiment: Fluorescent enzyme assay, Casp2 (AFC substrate Z-VDVAD-AFC); conditions: for Ki (Casp3) / Ki (Casp2): selectivity Casp2 over Casp3
T2 construct: inferred from pET23b, XhoI reverse primer without stop codon, Ni-NTA purification) (C); made in house; host or cells: E. coli BL21(DE3)
T2 sequence (P42575 170-452): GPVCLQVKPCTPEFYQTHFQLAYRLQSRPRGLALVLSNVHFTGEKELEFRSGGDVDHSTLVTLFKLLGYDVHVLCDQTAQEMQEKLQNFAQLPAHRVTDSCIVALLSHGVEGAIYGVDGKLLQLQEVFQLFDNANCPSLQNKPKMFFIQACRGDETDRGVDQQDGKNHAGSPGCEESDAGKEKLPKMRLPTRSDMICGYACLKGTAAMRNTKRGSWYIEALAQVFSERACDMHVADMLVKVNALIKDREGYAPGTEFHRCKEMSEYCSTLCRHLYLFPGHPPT
From the text: as §1, §2

Human recombinant Casp1 = biological target: T3, Human recombinant Casp1 (Homo sapiens, UniProt P29466); experiment: In vitro caspase panel assay, Casp1; conditions: Casp2 over Casp1, caspase panel
T3 construct: purchased BioVision (Milpitas/CA, USA)
T3 sequence (P29466 120-404): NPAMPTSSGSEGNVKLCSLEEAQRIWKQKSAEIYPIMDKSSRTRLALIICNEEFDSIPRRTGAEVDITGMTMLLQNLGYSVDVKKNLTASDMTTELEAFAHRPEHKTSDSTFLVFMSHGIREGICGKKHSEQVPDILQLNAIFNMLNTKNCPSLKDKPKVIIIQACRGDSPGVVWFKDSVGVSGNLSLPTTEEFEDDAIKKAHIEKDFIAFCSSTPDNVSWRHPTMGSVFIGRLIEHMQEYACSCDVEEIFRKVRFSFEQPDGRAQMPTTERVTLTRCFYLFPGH
From the text: Human recombinant Casp1, 6, 7, and 9 were purchased from BioVision (Milpitas/CA, USA). AFC fluorogenic substrates and control peptides (AcYVAD-CHO, AcVDVAD-CHO, AcDEVD-CHO, AcVEID-CHO, and AcLEHD-CHO) were purchased from Bachem (Torrance/CA, USA). The pET23b vector encoding human caspase-3 was a gift of Dr. Michelle Arkin at University of California, San Francisco. Expression and purification of Casp3 was guided by previously described protocols (Denault J-B, Salvesen G S., Current Protocols in Protein Science, 2002, 30(1), 21.13. 1-21.13. 15). Briefly, the plasmid was transformed into E. coli Rosetta 2 pLyss DE3 cells that were cultured at 1 L scale in shake flasks. […] The typical yield for the expression, isolation, and purification was approximately 3 mg/L. The DNA encoding human caspase-2 (hCASP2, amino acids 170-452, free of the N-terminal caspase activation and recruitment domain) open reading frame (ORF) was amplified via polymerase chain reaction (PCR) from full-length hCASP2 cDNA (Origene, Rockville, MD; Cat #SC321316) using following primers: forward, 5′-[…]-3′; reverse, 5′-[…]-3′. […] Proteins were stored in 1× phosphate-buffered saline (pH 7.4) at 10 mg/mL (concentration determined using a BCA assay (Thermo Fisher Scientific)), −80° C. until further use. […]

[1] = mean ± SEM of N independent experiments, each in duplicate or triplicate

In the case of `CC(=O)N[C@H](C(=O)NC(CC(=O)O)C(=O)N[C@H](C(=O)N1CCc2cc(C)ccc2C1C(=O)N[C@H](C=O)CC(=O)O)C(C)C)C(C)C` (stereo in doubt) [Compound 30a, (R)-3-((S)-2-acetamido-3-methylbutanamido)-4-(((S)-1-((S)-1-(((S)-1-carboxy-3-oxopropan-2-yl)carbamoyl)-6-methyl-3,4-dihydroisoquinolin-2(1H)-yl)-3-methyl-1-oxobutan-2-yl)amino)-4-oxobutanoic acid, reference compound], the Ki (human caspase-3; mean ± SEM of N independent experiments, each in duplicate or triplicate, read-out: pKi ± SEM Casp 3 (converted)) is reported as over 100000 nM, the Ki (human caspase-2; mean ± SEM of N independent experiments, each in duplicate or triplicate, read-out: pKi ± SEM Casp 2 (converted)) is reported as 10500 nM and the “Ki (Casp3) / Ki (Casp2)” value (human caspase-2) is reported as over 9.
`Cc1ccc2c(c1)CCN(C(=O)[C@@H](NC(=O)[C@H](CCCC(=O)O)NC(=O)C1Cc3ccccc3N1)C(C)C)[C@@H]2C(=O)N[C@H](C#N)CC(=O)O` (stereo partly drawn) [Compound 1, (8)-6-(((S)-1-((8)-1-(((S)-2-carboxy-1-cyanoethyl)carbamoyl)-6-methyl-3,4-dihydroisoquinolin-2(1H)-yl)-3-methyl-1-oxobutan-2-yl)amino)-5-((S)-indoline-2-carboxamido)-6-oxohexanoic acid] was tested, and the Ki (human caspase-3) was 933 nM, the Ki (human caspase-2) was 7.59 nM and the “selective versus Casp3” value (human caspase-2; Casp2 over Casp3) was 123 fold. For the same compound, the “Ki (Casp3) / Ki (Casp2)” value (human caspase-2) was 123 and the “selective versus Casp1” value (Human recombinant Casp1) was over 2000 fold.
`CC(=O)N[C@H](C(=O)N[C@@H](CC(=O)O)C(=O)N[C@H](C(=O)N1CCc2cc(C)ccc2[C@H]1C(=O)N[C@H](C=O)CC(=O)O)C(C)C)C(C)C` [Compound 30b, (S)-3-((S)-2-acetamido-3-methylbutanamido)-4-(((S)-1-((S)-1-(((S)-1-carboxy-3-oxopropan-2-yl)carbamoyl)-6-methyl-3,4-dihydroisoquinolin-2(1H)-yl)-3-methyl-1-oxobutan-2-yl)amino)-4-oxobutanoic acid, reference compound] was tested, and the “pKi ± SEM Casp 3” value (human caspase-3; [1]) was 6.04 ± 0.06, the “pKi ± SEM Casp 2” value (human caspase-2; [1]) was 7.89 ± 0.02 and the “Ki (Casp3) / Ki (Casp2)” value (human caspase-2) was 70.
